Assay: first-order primary biodegradation rate constant k (sorption-corrected, fDis-corrected) (d-1); higher = faster biodegradation
Procedure: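 Modified OECD 309 water-sediment test. River water plus sieved sediment (50 g wet solid/L) from European river segments (DE, CH, ES, EL) was spiked with a mixture of 129 compounds at 1 ug/L each and incubated in the dark at river temperature for 10 days. The water phase was analysed by UHPLC-Orbitrap-MS. The first-order primary biodegradation rate constant k (d-1) is k_observed, corrected for dissipation in sterile sorption controls and divided by the dissolved fraction fDis; it was fitted over 3 replicate incubations. Invalid fits (p > 0.05, n < 5, not available, concentration increase) are excluded.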

[1] = river segment: Greece (EL) A_Contam, incubation temperature 19 °C
[2] = river segment: Spain (ES) B_Contam, incubation temperature 24 °C
[3] = river segment: Spain (ES) C_Contam, incubation temperature 24 °C
[4] = river segment: Spain (ES) L_Contam, incubation temperature 24 °C
[5] = river segment: Switzerland (CH) R_Contam, incubation temperature 17 °C
[6] = river segment: Germany (DE) H_Contam, incubation temperature 24 °C
[7] = river segment: Germany (DE) T_Contam, incubation temperature 24 °C
[8] = river segment: Germany (DE) T_Pris, incubation temperature 24 °C
[9] = river segment: Greece (EL) G_Contam, incubation temperature 19 °C
[10] = river segment: Greece (EL) G_Pris, incubation temperature 19 °C
[11] = river segment: Greece (EL) L_Contam, incubation temperature 19 °C
[12] = river segment: Switzerland (CH) C_Contam, incubation temperature 17 °C
[13] = river segment: Switzerland (CH) U_Contam, incubation temperature 17 °C
[14] = river segment: Switzerland (CH) U_Pris, incubation temperature 17 °C
[15] = river segment: Spain (ES) F_Pris_Salt, incubation temperature 24 °C

SMILES	first-order primary biodegradation rate constant k [1]	first-order primary biodegradation rate constant k [2]	first-order primary biodegradation rate constant k [3]	first-order primary biodegradation rate constant k [4]	first-order primary biodegradation rate constant k [5]	first-order primary biodegradation rate constant k [6]	first-order primary biodegradation rate constant k [7]	first-order primary biodegradation rate constant k [8]	first-order primary biodegradation rate constant k [9]	first-order primary biodegradation rate constant k [10]	first-order primary biodegradation rate constant k [11]	first-order primary biodegradation rate constant k [12]	first-order primary biodegradation rate constant k [13]	first-order primary biodegradation rate constant k [14]	first-order primary biodegradation rate constant k [15]
CC1=CC(=O)NS(=O)(=O)O1 [Acesulfame]	0.191	1.27	0.157	0.293	0.0997										
C/C(=N\C#N)N(C)Cc1ccc(Cl)nc1 [Acetamiprid]	0.097		0.00952	0.0364	0.139	0.0195	0.217	0.0162	0.0201	0.125	0.0691	0.031	0.106	0.386	
CCc1cccc(CC)c1N(COC)C(=O)CCl [Alachlor]		0.115		0.12	0.223	0.0727	0.612	0.105		0.387	0.568	0.0903	0.349		
CCN1CCCC1CNC(=O)c1cc(S(=O)(=O)CC)c(N)cc1OC (stereo unspecified) [Amisulpride]	0.501	0.0427		0.00307		0.0111	0.266	0.0301	0.129	0.106		0.0234	0.00879	0.0314	
CC(C)(C#N)c1cc(Cn2cncn2)cc(C(C)(C)C#N)c1 [Anastrozole]							0.0241	0.0157	0.658	0.133	0.113		0.00582		
CC(C)NCC(O)COc1ccc(CC(N)=O)cc1 (stereo unspecified) [Atenolol]	0.39	2.88		0.568	0.395	0.299	0.901	0.3	0.342	0.147	0.665	0.114	0.508	0.447	0.0637
CCNc1nc(Cl)nc(NC(C)C)n1 [Atrazine]	0.0312	0.103	0.0247	0.451		0.0725	0.136	0.025				0.0513	0.0313	0.0218	
c1ccc2[nH]nnc2c1 [Benzotriazole]	0.316	0.0121	0.00219	0.208	0.00612	0.0409	0.0507	0.00553		0.0923	2.87		0.0122	0.0264	
CC(C)(Oc1ccc(CCNC(=O)c2ccc(Cl)cc2)cc1)C(=O)O [Bezafibrate]	0.408	1.03	0.169	0.263	0.411	0.295	0.469	0.123	0.184	0.438	0.566	0.382		2.17	0.0229
CC(C)NCC(O)COc1ccc(COCCOC(C)C)cc1 (stereo unspecified) [Bisoprolol]		0.569	0.414	0.28	0.309	0.341	0.352	0.336	0.37	0.293	1.27	0.326	0.473	0.772	0.144
N#Cc1cc(Br)c(O)c(Br)c1 [Bromoxynil]				0.0939			0.133				0.0249			0.0852	
Cn1c(=O)c2c(ncn2C)n(C)c1=O [Caffeine]	0.894	1.52	0.276	0.895	0.144	0.262	0.415	0.0734	0.085	0.0394	0.276	0.172	0.368	0.69	0.215
CCOc1nc2cccc(C(=O)O)c2n1Cc1ccc(-c2ccccc2-c2nnn[nH]2)cc1 [Candesartan]	0.00917								0.398					0.00966	
NC(=O)N1c2ccccc2C=Cc2ccccc21 [Carbamazepine]	0.00808		0.00861	0.711			0.0377				0.00883				

Reference: the supplement of paper PMC11562712
